In patent US20160287553A1, “TRANSLATION INHIBITORS IN HIGH-DOSE CHEMO- AND/OR HIGH-DOSE RADIOTHERAPY” (DEUTSCHES KREBSFORSCHUNGSZENTRUM, priority 2013, published 2016):

Assays:
[1] = system: Peripheral blood T cells; assay: Etoposide-induced apoptotic cell death of T cells (DNA fragmentation, AnnexinV, FSC/SSC); conditions: for Protection of normal T cells from Etoposide-induced cell death by Roc-derivatives: 50 μM Etoposide, 75 nM Roc-derivative, 24 h (FIG. 6b)
Method: The human malignant cell lines EU-3 (acute lymphoblastic leukemia), DND-41 (T cell leukemia), Hut-78 (T cell lymphoma), SKW6.4 (B cell leukemia), Reh (acute lymphoblastic leukemia), IM-9 (Chronic myeloid leukemia), HL-60 (promyelocytic leukemia), L1236 (Hodgkin's lymphoma) and NCI-H209 (small cell lung cancer) were cultured at 37° C. with 5% CO2 in RPMI-1640 medium (Sigma-Aldrich, Munich, Germany) supplemented with 10% FCS, 100 U/ml Penicillin (Sigma-Aldrich, Munich, Germany) and 100 μg/ml Streptamycin (Sigma-Aldrich, Munich, Germany) SCLC-21H cells (small cell lung cancer) were cultured in DMEM medium (Sigma-Aldrich, Munich, Germany) supplemented with 10% FCS. Peripheral blood T lymphocytes were isolated as previously described (Klas et al., Int Immunol. 1993; 5: 625-630). B lymphocytes and NK cells were isolated by magnetic activated cell sorting using “B cell isolation kit II” (Miltenyi Biotech, Bergisch Gladbach, Germany) and “NK cell isolation kit, human” (Miltenyi Biotech, Bergisch Gladbach, Germany), respectively, according to the manufacturer's instructions. Human neutrophils were separated from peripheral blood mononuclear cells by Ficoll-Paque density centrifugation, followed by incubation in 1.05% dextran for 30 min at room temperature. Remaining erythrocytes were lysed by resuspension in ice-cold 0.2% sodium chloride solution. After 1 min ice-cold 1.6% sodium-chloride solution was added and lysis was stopped by addition of PBS and neutrophils were resuspended in medium at a concentration of 2×10^6 cells/ml. Human primary cardiomyocytes were purchased from PromoCell (Heidelberg, Germany) and cultured in Myocyte Growth Medium (PromoCell, Heidelberg, Germany). Remaining primary human cells were cultured in RPMI-1640 medium with the same conditions described above.
Apoptotic cell death was determined by AnnexinV staining, cellular forward scatter/side scatter (FSC/SSC) profile, or DNA fragmentation. For AnnexinV staining, 2×10^5 cells were treated with different drugs for indicated time periods, washed with AnnexinV binding buffer (0.01 M Hepes, 0.14 M NaCl, 2.5 mM CaCl2), and stained with AnnexinV-FITC antibody (Immunotools, Friesoythe, Germany) and 7-amino-actinomycin D (Sigma-Aldrich, Munich, Germany) for 30 min at 4° C. The amount of AnnexinV positive cells was determined by FACS measurement. DNA fragmentation was determined according to the method of Nicoletti (Nicoletti et al., J Immunol Methods. 1991; 139: 271-279). Briefly, 2×10^5 cells were treated as indicated, washed with PBS and lysed in Nicoletti buffer (0.1% sodium citrate, 0.1% Triton X-100, 50 μg/ml propidium iodide). DNA fragmentation was determined by FACS. Apoptosis-like cells were determined by forward scatter and side scatter (FSC/SSC) index. Specific DNA fragmentation/specific AnnexinV positive cells/specific apoptosis was calculated as follows: (percentage of experimental DNA fragmentation (or Annexin V positive cells or apoptosis)−percentage of spontaneous DNA fragmentation (or Annexin V positive cells or apoptosis)/(100−percentage of spontaneous DNA fragmentation (or Annexin V positive cells or apoptosis))×100.

[2] = system: Primary human T cells; assay: Ionizing radiation (IR)-induced apoptosis in T cells; format: cell-based; conditions: 24 h, increasing doses of IR, different concentrations of FL3 (FIG. 8b)
Method: (§1) DNA fragmentation was determined by FACS.
The radioprotective effect mediated by Roc-A was the highest when cells were treated with Roc-A 1 h before radiation of cells (FIG. 1d). However, when cells were treated 4 h after radiation, the radioprotective effect was still higher than 50% (FIG. 1d).

[3] = system: p53; assay: p53 protein expression by immunoblot; format: cell-based, human; conditions: T cells, 100 nM Bortezomib
Method: Immunoblot analysis was carried out as previously described (Polier et al., Chem Biol. 2012; 19: 1093-1104). Briefly, 4-20×10^6 cells were treated with different reagents as indicated and lysed in RIPA buffer (50 mM Tris HCl, 137 mM NaCl, 0.5% Na Deoxycholate, 1% Triton X-100, 0.1% SDS, protease inhibitors). Proteins were separated by SDS-PAGE and transferred to a nitrocellulose membrane (Amersham Biosciences, Little Chalfon, UK) using a semi-dry blotting approach. The following antibodies were used: p53 (DO-1) antibody was purchased from Santa Cruz Biotechnology (Heidelberg, Germany). Tubulin and actin (A5441) antibodies were purchased from Sigma-Aldrich (St. Louis, USA).
The transcription factor p53 is a major regulator of DNA damage-induced apoptosis (Lowe et al., Cell. 1993; 74: 957-967). Therefore, we investigated the effect of Roc-A on the expression level of p53.
p53 protein expression can be regulated at the level of transcription, translation, and ubiquitination-mediated degradation (Marine & Lozano, Cell Death Differ. 2010; 17: 93-102). It has been shown that upon DNA damage p53 undergoes post-translational modifications leading to its deubiquitination and, thus, stabilization (Lee & Gu, Cell Death Differ. 2010; 17: 86-92). To investigate whether Roc-A could decrease p53 stability, we treated T cells with the proteasome inhibitor Bortezomib to block proteasome-mediated degradation.

[4] = system: non-malignant cells; assay: Fold change in cell death on raising the Etoposide dose, non-malignant cells (FIG. 9a-b); format: cell-based; conditions: Etoposide from 6.25 μM to 50 μM, 24 h, solvent (FIG. 9a)
Method: (§2) (a) Cells from (b) were grouped into malignant and non-malignant cells. Shown are means of three independent experiments. Abbreviations; HSPCs=hematopoietic stem and progenitor cells. (c-d) Malignant and non-malignant cells were exposed to ionizing radiation (IR) in the presence of 75 nM Roc-A or solvent (DMSO) and cell death was determined after 24 h by DNA fragmentation. Depicted is the fold-change in cell death that was measured when doses of IR were increased from 2 Gy to 10 Gy. (c) Cells from (d) were grouped into malignant and non-malignant cells. Shown are means of three independent experiments.
as §1
(§3) Roc-A specifically prevents the cause of chemotherapeutic and radiation-induced side-effects, i.e., the death of healthy cells. […] Consequently, high-dose therapy is not possible, as side effects would be too high.

[5] = system: malignant cells; assay: Fold change in cell death on raising the Etoposide dose, malignant cells (FIG. 9a-b); format: cell-based; conditions: Etoposide from 6.25 μM to 50 μM, 24 h, solvent (FIG. 9a)
Method: as §2, §1, §3

[6] = system: ERK; conditions: Polier et al., op. cit.; cited from earlier work
[7] = system: protein synthesis in T cells; assay: Translation assay: [35S]methionine incorporation in T cells; format: cell-based, human; conditions: T cells (FIG. 6b)
Method: The relative amount of protein synthesis was determined by measuring the amount of incorporation of ^35S-methionine into the protein. Briefly, cells were pre-cultured in methionine-free medium (supplemented with 10% dialyzed FCS) for 3 h, followed by incubation with 3.5 μCi of ^35S-methionine-labeling mix (PerkinElmer, Waltham, Mass., USA) per 8×10^5 cells for 6 h as indicated. After the treatment, cells were washed twice with ice-cold PBS and lysed in RIPA buffer. 50 μl of each lysate were added to 1 ml of Liquid Scintillation Cocktail solution (Beckman Coulter, Brea, Calif., USA) and the amount of incorporated radioactivity was determined by liquid scintillation counting.
Roc-A has been well documented to inhibit protein translation (Polier et al., Chem Biol. 2012; 19: 1093-1104; Sadlish et al., ACS Chem Biol. 2013; doi:10.1021/cb400158t; Bleumink et al., Cell Death Differ. 2011; 18: 362-370; Cencic et al., PloS one. 2009; 4: e5223). Thus, we expected that Roc-A-mediated suppression of genotoxin-induced p53 upregulation may be regulated by inhibition of p53 protein synthesis.

| Structure (SMILES) | Inhibitory effect on ERK activity / activation [6] | Protection of normal T cells from Etoposide-induced cell death by Roc-derivatives [1] | Inhibition of [35S]methionine incorporation (protein translation) [7] | further results |
| --- | --- | --- | --- | --- |
| COc1cc(OC)c2c(c1)O[C@@]1(c3ccc(Br)cc3)[C@H](c3ccccc3)C[C@@H](O)[C@@]21O (racemic) [FL3, racemic bromo-demethoxy-rocaglaol] |  |  |  | Protection of T cells from Etoposide-induced apoptotic cell death by FL3 ([1]; 24 h, increasing doses of Etoposide, different concentrations of FL3 (FIG. 8a)): protects T cells; Protection of T cells from IR-induced apoptotic cell death by FL3 [2]: protects T cells |
| CC(C)C[C@H](NC(=O)[C@H](Cc1ccccc1)NC(=O)c1cnccn1)B(O)O [Bortezomib, reference compound] |  |  |  | Interference with Roc-A block of Etoposide-induced p53 upregulation ([3]; 50 μM Etoposide, 75 nM Roc-A, 4 h (FIG. 6a)): did also not interfere with the ability of Roc-A to block Etoposide-induced p53 upregulation; p53 level on proteasome inhibition ([3]; absence of Roc-A (FIG. 6a)): led to an increase in p53; p53 level on proteasome inhibition ([3]; presence of 75 nM Roc-A (FIG. 6a)): could not increase p53 |
| COc1cc([C@@H]2c3cc4c(cc3[C@@H](O[C@@H]3O[C@@H]5CO[C@@H](C)O[C@H]5[C@H](O)[C@H]3O)[C@H]3COC(=O)[C@H]23)OCO4)cc(OC)c1O [Etoposide, reference compound] |  |  |  | Increase in Etoposide-induced cell death [4]: up to 3 fold; Cell death of normal T cells by the genotoxin ([1]; 24 h, increasing concentrations of Etoposide): caused cell death of normal T cells; Increase in Etoposide-induced cell death [5]: approximately 3 fold |
| COC(=O)C1C(OC(C)=O)C2(O)c3c(OC)cc(OC)cc3OC2(c2ccc(OC)cc2)C1c1ccccc1 (centres unmarked) [Roc-AA, C-1-O-acetyl-methylrocaglate] | do not show any or very little inhibitory effects on ERK activity | did not protect T cells | did not inhibit protein translation |  |
| COc1ccc([C@@]23Oc4cc(OC)cc(OC)c4[C@]2(O)[C@H](OC(C)=O)[C@H](C(=O)N(C)C)[C@H]3c2ccccc2)cc1 [Roc-AB, 1-O-acetyl-rocaglamide] | inhibit ERK activation with different efficacies | different levels of protection | inhibited [^35S]methionine incorporation at different degrees |  |
| COC(=O)C1C(O)C2(O)c3c(OC)cc(OC)cc3OC2(c2ccc3c(c2)OCO3)C1c1ccccc1 (centres unmarked) [Roc-AF, 30,40-methylendioxy-methylrocaglate] | do not show any or very little inhibitory effects on ERK activity | did not protect T cells | did not inhibit protein translation |  |
| COc1cc(OC)c2c(c1)OC1(c3ccc4c(c3)OCO4)C(c3ccccc3)CC(=O)C21O (centres unmarked) [Roc-AR, 1-oxo-40-demethoxy-30,40-methylenedioxyrocaglaol] | inhibit ERK activation with different efficacies | different levels of protection | inhibited [^35S]methionine incorporation at different degrees |  |
| COc1cc(OC)c2c(c1)OC1(c3ccc(OC)c(O)c3)C(c3ccccc3)C(C(=O)N(C)C)C(OC(C)=O)C21O (centres unmarked) [Roc-I, C-1-O-acetyl-30-hydroxy-rocaglamide] | do not show any or very little inhibitory effects on ERK activity | did not protect T cells | did not inhibit protein translation |  |
| COC(=O)[C@H]1[C@@H](O)[C@@]2(O)c3c(OC)cc(OC)cc3O[C@@]2(c2ccc(OC)c(O)c2)[C@@H]1c1ccccc1 [Roc-J, 30-hydroxyaglafoline] | inhibit ERK activation with different efficacies | different levels of protection | inhibited [^35S]methionine incorporation at different degrees |  |
| CNC(=O)[C@H]1[C@@H](O)[C@@]2(O)c3c(OC)cc(OC)cc3O[C@@]2(c2ccc(OC)cc2)[C@@H]1c1ccccc1 [Roc-Q, demethylrocaglamide] | inhibit ERK activation with different efficacies | different levels of protection | inhibited [^35S]methionine incorporation at different degrees |  |
